Assay results reported in patent publication US6204266A, “Pharmaceutical, cosmetic and/or food composition having anti-oxidant properties” (Universite Catholique De Louvain Halles Universitaires, priority 1995, dated 2001).

Key:
[1] = tested on: Human fibroblasts; test: Protection of human fibroblasts against oxidative stress inducer tert-butyl hydroperoxide (t-BHP); format: cell-based
Experimental: Human fibroblasts were subjected to an oxidative stress inducer (tert-butyl hydroperoxide (t-BHP)) for 6 to 12 hours in the absence and in the presence of increasing doses of coelenterazine and its derivatives.
In the same experimental series, the efficacy of vitamin E (α-tocopherol) (Troxol®), a major antioxidant of animal cells, was compared.

[2] = In vitro toxicity on other mammalian cell types (FIG. 11); format: cell-based; conditions: pig (EAP) endothelial cells, read-out: concentration at which a toxic effect can possibly be observed
Experimental: Similar in vitro toxicity tests were performed on other mammalian (porcine, human, etc.) cell types.
FIG. 11 depicts the percentage survival of different cell types (fibroblasts, human (ECV) or pig (EAP) endothelial cells) as a function of increasing doses of CLZ-9 (molar). A toxic effect of the products can possibly be observed on a certain cell type at high concentrations (10^-4 M in pigs).

[3] = tested on: Cu-Zn superoxide dismutase; test: Competition of imidazolopyrazine and superoxide dismutase for superoxide anion (xanthine oxidase/hypoxanthine), luminescence; format: biochemical; conditions: for change of slope of the relationship linking IO/I to the superoxide dismutase concentration: when the concentration of the luminescent compound is increased
Text: This method is based on the capacity of imidazolopyrazines to react with the superoxide anion, emitting light.
In these experiments, a constant level of superoxide anion is generated by an enzymatic method, by reacting xanthine oxidase with hypoxanthine in the presence of oxygen.
The maximum light intensity, measured by a luminometer during the competition reaction, is linked to the ratio in [sic] imidazolopyrazine and superoxide dismutase concentrations, as well as to that of the respective rate constants.
Consequently, knowing the rate constant of the reaction of the competing antioxidant with the superoxide anion (K3), the rate constant of the reaction of the imidazolopyrazine with the superoxide anion (K2) may be calculated:
By carrying out this experiment at two imidazolopyrazine concentrations, it is possible to eliminate K1 [O2^2- ] corresponding to the spontaneous disproportionation reaction of O2^2-. The slopes A and B of the straight lines linking IO /I [sic] to the superoxide dismutase concentration are: [formula]
K2 =K3 /([IMPZ]1 -[IMPZ]2)/(1/A)-1/B)
When the imidazolopyrazine concentration is increased, the slope of the relationship linking IO /I [sic] to the superoxide dismutase concentration should decrease.

[4] = tested on: human fibroblasts (MRC5); test: In vitro toxicity on human fibroblasts (MRC5), total protein content; format: cell-based; conditions: concentration of 0.1 mM (10^-4 M), 1% ethanol
Experimental: Each of the imidazolopyrazine derivatives tested was applied to human fibroblasts (MRC5) in culture. The doses of the compounds ranged from 10^-8 to 10^-4 M. These compounds were applied 48 hours after the cells were inoculated into wells (volume=150 μl; 3000 cells per well).
After a further 24 hour period, the culture medium is renewed, the cells are incubated for 72 hours and their level of survival and of growth is evaluated by measuring the total protein contents in each well (Biorad).

[5] = Stability in aqueous medium (buffers pH 4, 7, 10; assayed by luminescence in DMSO); format: physicochemical; conditions: irrespective of the pH
Experimental: FIG. 7 depicts the stability of the derivative 10 in an aqueous medium. Three 10^-5 M solutions of CLZN-10 were prepared in citrate (pH 4), phosphate (pH 7) and glycine (pH 10) buffers. Aliquots of these solutions were sampled regularly and the CLZN-10 assayed by luminescence in DMSO.
In comparison with coelenterazine, derivatives comprising additional phenyl groups display better stability.

[6] = tested on: mice; conditions: mouse, in vivo
[7] = In vivo toxicity in mice; conditions: mouse, in vivo, ip, 0.02 mg/kg
[8] = tested on: mice; test: In vivo toxicity in mice; conditions: 20 μg/kg, 5 intraperitoneal injections
[9] = t-BHP-treated human fibroblasts

What does the source list for Cc1nc2c(Cc3ccccc3)[nH]c(-c3ccc(O)cc3)cn-2c1=O [CLZN-9, 3,7-dihydro-2-methyl-6-(p-hydroxyphenyl)-8-benzylimidazo[1,2-a]pyrazyn-3-one]?
EC100 ([1]; Fibroblast, t-BHP-treated human fibroblasts, read-out: concentration at which protection is total): 1 µM; minimal effective concentration ([1]; Fibroblast, t-BHP-treated human fibroblasts, read-out: concentration from which the improvement of survival is significant): 0.02 µM; survival of the t-BHP-treated cells ([1]; t-BHP 10^-4 M, without serum (FIG. 8)): most advantageous results; antioxidant activity compared with vitamin E [1, 9]: greater than; MCC [2]: 100 µM; increase of KSOD with imidazolopyrazine concentration (effect) [3]: observed

With O=c1c(-c2ccccc2)nc2c(Cc3ccccc3)[nH]c(-c3ccc(O)cc3)cn1-2 [CLZN-10, 3,7-dihydro-2-phenyl-6-(p-hydroxyphenyl)-8-benzylimidazo[1,2-a]pyrazyn-3-one] as the compound, how does the “increase of KSOD with imidazolopyrazine concentration (effect)” value [3] read?
The value was “observed”.

Which “toxicity for human fibroblasts (MRC5)” value [4] does the source give for O=c1c(Cc2ccccc2)nc2c(Cc3ccccc3)[nH]c(-c3ccc(O)cc3)cn1-2 [CLZN-11, 3,7-dihydro-2-benzyl-6-(p-hydroxyphenyl)-8-benzylimidazo[1,2-a]pyrazyn-3-one] here?
The value was “significant toxicity”.

What does the source list for Oc1ccc(Cc2nc3c(Cc4ccccc4)nc(-c4ccc(O)cc4)cn3c2O)cc1 [coelenterazine, 3,7-dihydro-2-(p-hydroxybenzyl)-6-(p-hydroxyphenyl)-8-benzylimidazo[1,2-a]pyrazyn-3-one]?
stability in an aqueous medium [5]: only a few hours; Weight (in grams) after 0 day [6]: 16.19 grams; Weight (in grams) after 6 days [6]: 22.82 grams; Weight (in grams) after 30 days [6]: 31.57 grams; survival [6]: 5/5; growth retardation ([6]; ip): no growth retardation is observed; antioxidant activity compared with vitamin E [1, 9]: equivalent to; survival [7]: 100%; toxicity for mice [8]: not toxic; rate constant KSOD ([3]; coelenterazine concentration 50 nM): 2×10^9; rate constant KSOD ([3]; coelenterazine concentration 400 nM): 2.5×10^10; increase in rate constant KSOD ([3]; coelenterazine concentration multiplied by 8 (from 50 to 400 nM)): 12.5 fold; change of slope of the relationship linking IO/I to the superoxide dismutase concentration [3]: a rise in the slope

For Nc1cccc2c(=O)[nH][nH]c(=O)c12 [luminol, reference compound], which “change of slope of the relationship linking IO/I to the superoxide dismutase concentration” value [3] is on record?
The value was “a regular decrease in the slope”.

With Cc1c(C)c2c(c(C)c1O)CC[C@@](C)(CCC[C@H](C)CCC[C@H](C)CCCC(C)C)O2 [vitamin E, α-tocopherol, reference compound] as the compound, how does the protection ([1]; serum (10%) in the culture medium, highest concentrations) read?
Its protection is 60%.
